# Entries after “also recorded” stand apart in the source; their conditions may differ.
# Experiments:
# ET-induced footpad edema = assay: Mouse footpad edema assay: ET injected into the footpad after systemic drug pre-treatment; format: in vivo, BALB/cJ mice; conditions: for Inhibition of ET-induced footpad swelling (edema): i.p. pre-treatment 2-3 h before ET 0.15 pg/20 pl, ESI-09, AG1024, H89 10 mg/kg, SecinH3 250 ul of 2.5 mM, also 2 h post toxin, edema at 8-10 h or 18-24 h
# Source text: To verify these conclusions in vivo, a footpad swelling assay was turned to in which intra-dermal injection of ET results in robust quantifiable edema. […] The question of which branch(es) of the cAMP pathway contributed to EF-mediated edema was examined by comparing the relative abilities of H89 and ESI-09 to block ET-induced footpad swelling. […] It was concluded that the Epac/Rap1 pathway is the primary mediator of EF-induced edema. In addition, the effect of AG1024 [47], an inhibitor of insulin-like growth factor receptor (IGF-1R), was tested. […] These findings, together with the results described above provide a framework for how effector pathways contribute to cAMP-mediated disruption of Rab11-dependent membrane trafficking (See FIG. 6 for summary diagram).
# BALB/cJ mice (8-10 weeks old, female; Jackson Laboratories, Bar Harbor, Me.) were intraperitoneally injected with drugs. SecinH3 (TOCRIS #2849), AG1024 (Selleckchem, S1234), ESI-09 (TOCRIS #4773) or H89 (TOCRIS #2910), or with vehicle (70% DMSO in isotonic glucose for SecinH3, 30% DMSO in isotonic glucose for other drugs) 2-3 h prior to injection of ET (0.15 pg/20 pl, right footpad) or PBS (20 pl, left footpad), and in the case of SecinH3, also 2 h post toxin injection. ESI-09, AG1024 and H89 were administered at 10 mg/kg and SecinH3 was administered as 250 ul and 2.5 mM solution. Edema was assessed at 8-10 h, or 18-24 h by dorsal/plantar measurements using digital calipers.
# HBMECs = assay: ET (EF+PA) intoxication of HBMEC cultures with drug co-treatment; anti-pan-cadherin stain of adherens junctions, Sec15-GFP punctae; format: cell-based, human; conditions: EF and PA 0.2 pg/ml-0.4 pg/ml, co-treatment 24 hrs, Slit2 10 pg/ml, ESI-09 100 pM, H89 10 pM
# Experimental: The relative contributions of the Arf6, Epac, and PKA pathways to EF-induced inhibition of Rab11 was next examined, making use of HBMEC cultures. […] To inhibit the Arf6 pathway, cells were treated with Slit2, a secreted peptide that activates the Robo4 receptor to promote vascular stability via stimulation of the ArfGAP GIT [27]. […] Next, to determine the relative contribution of each branch of the cAMP pathway, EF-intoxicated cells were co-treated with ESI-09, an inhibitor specific for Epac, or with H89, a well-characterized inhibitor of PKA[45]. […] It was concluded that Epac/Rap1 is the predominant pathway mediating the cAMP induced effects of ET on exocyst-dependent junctional traffic in this setting.
# HBMEC cultures were maintained in DMEM (Corning; Manassas, Va.) containing 10% FBS, 1% Penicillin/streptomycin, 2 mM L-glutamine and were incubated in 37° C., 5% CO2 atmosphere. Cells were gently dislodged with 0.05% trypsin (Mediatech Inc.) and cultured on glass poly-D-lysine coated chamber slides (BD Falcon #354108). At about 80% confluence, EF and PA (0.2 pg/ml-0.4 pg/ml) were added to cells. […] After 24 hrs (FIGS. 5A-5H), cells were fixed for 10 mins at −20° C. in 100% Methanol, then washed with 0.1% Triton in PBS, Sec15GFP fluorescence was inspected directly, while Methanol-fixed cells were stained with a mouse anti pan-Cadherin antibody (Abcam, clone CH-19, 1/100). […]
Structure (SMILES),Inhibition of ET-induced footpad swelling (edema) (ET-induced footpad edema),"Reversal of ET footpad swelling at both early (8 h) and late (18 h) times (ET-induced footpad edema; injected systemically in mice, 8 h and 18 h)",Rescue of junctional pan-cadherin accumulation / adherens junctions (AJs) compromised by EF/ET (HBMECs),ET-induced edema in animals in which systemic pre-treatment induced observable symptoms of malaise (ET-induced footpad edema; SecinH3-pretreated mice showing malaise),"Tolerability of systemic pre-treatment with the drug (ET-induced footpad edema; SecinH3 i.p., 250 ul of 2.5 mM solution, some animals)"
CC(C)(C)c1cc(C=C(C#N)C#N)cc(Br)c1O [AG1024],"significant reduction of edema; also recorded: can be suppressed; also recorded: Strong, although less persistent, suppression of footpad swelling",–,–,–,–
CC(C)(C)c1cc(C(=O)/C(C#N)=N/Nc2cccc(Cl)c2)no1 [ESI-09],absolute inhibition of edema; also recorded: strong inhibition of footpad swelling; also recorded: can be suppressed,can reverse the footpad swelling,partially restore normal junctional traffic and visible AJs; also recorded: partially rescues pan-cadherin expression at AJs; also recorded: partially restore junctional barrier integrity,–,–
O=S(=O)(NCCNC/C=C/c1ccc(Br)cc1)c1cccc2cnccc12 [H89],little or no effect,–,no detectable rescue; also recorded: does not appreciably rescue junctional cadherin expression,–,–
COc1nc(-c2ccc3c(c2)OCO3)n(-c2ccc(NC(=O)CSc3ccccc3)cc2)n1 [SecinH3],strongly inhibited; also recorded: blocked EF-induced edema; also recorded: can be suppressed,–,–,virtually abolished,observable symptoms of malaise

# Reference: patent US11083708B2, “Pharmacological restoration of epithelial or endothelial barrier integrity by agents blocking EPAC/RAP1 signaling” (The Regents of the University of California, priority 2018, dated 2021)
